Article PMC8175851, “Effects of Genetic Polymorphism in CYP2D6, CYP2C19, and the Organic Cation Transporter OCT1 on Amitriptyline Pharmacokinetics in Healthy Volunteers and Depressive Disorder Patients” (Frontiers in Pharmacology, 2021)
Read-outs that look alike come from different tables or passages of the source.

Experiment: Pharmacokinetics of AT and NT in healthy volunteers after a single dose of 25 mg amitriptyline
Format: in vivo, human
Conditions: healthy volunteers; for half-life / Tmax / AUC(0-inf) / Cmax / AUC(0-t): human, plasma, po, 25 mg; for half-life / Tmax / AUC(0-inf) / Cmax / Vz / CL / AUC(0-t): single oral 25 mg AT; for AUC(0-inf): read-out: AUCinf; for AUC(0-t): read-out: AUC48h
From the text: In order to enrich the study sample with the less frequent functionally deficient OCT1 variants, participants were selected based on OCT1 genotype from an internal database at the Institute of Clinical Pharmacology of the University Medical Center Göttingen. All volunteers who are listed in the internal database had agreed to it and the database was approved by the ethics committee of the University of Göttingen. […] Additional subjects with heterozygous genotypes were included to provide a better understanding of the effects of specific variants and the mode of inheritance. All volunteers gave their written informed consent before participation in the study. The study was approved by the ethics committee of the University of Göttingen and the German Federal Institute for Drugs and Medical Devices (BfArM). It was registered at the clinical trials databases Clinicaltrials.gov (NCT02054299) and EudraCT (number 2012-003546-33). […] Volunteers who underwent regular drug treatments other than oral contraceptives or who suffered from any relevant chronic illness, as well as pregnant or lactating women, were not included. All subjects were healthy according to a detailed medical history, medical examination, electrocardiogram, urine status and clinical chemistry, and haematology parameters (sodium, potassium, total bilirubin, aspartate aminotransferase, alanine-aminotransferase, creatinine, C-reactive protein, thyroid-stimulating hormone, haemoglobin, erythrocyte, thrombocyte, and leucocyte counts). […] After centrifugation (13,000 rpm, 15 min, room temperature), two-thirds of the supernatant were transferred to a new reaction tube and evaporated at 40°C under nitrogen flow. The residue was reconstituted under shaking in 0.1% methanoic acid and briefly centrifuged before quantification using a Nexera UHPLC system (Shimadzu, Kyoto, Japan) coupled to an API 4000 tandem mass spectrometer (AB Sciex, Darmstadt, Germany). […] PerkinElmer, Rodgau, Germany) with a Phenomenex C18 pre-column (4 × 2 mm, Phenomenex, Aschaffenburg, Germany). […] The lower limit of quantification was 0.5 ng/ml for AT and 0.1 ng/ml for NT. […] The mass spectrometry detection parameters are listed in Supplementary Table S1. For the study in healthy volunteers, the primary endpoints were the AUCs of plasma AT and NT concentrations. Secondary endpoints were the other pharmacokinetic parameters of AT and NT, as well as heart rate, blood pressure, pupil size effects, and possible adverse events (headache, fatigue, visual or hearing impairments, restlessness, nausea, dizziness, dry mouth, tremor, as well as sensations of hypothermia and heart palpitations determined using a visual analogue scale test). Pharmacokinetic parameters were calculated by non-compartmental analysis using Phoenix 64 WinNonlin version 6.3 (Certara Inc., Princeton, NJ, United States). AUCinf of AT was calculated from the time of dosing using the linear/log trapezoidal rule and extrapolated to infinity based on the last predicted concentration and using the terminal elimination rate constant (lambda z). AUC of NT was calculated from the time of dosing until the last measurement at 48 h using the linear/log trapezoidal rule, as a decline in NT concentrations was not observed in some subjects and extrapolation to infinity thus not possible.

[1] = both sexes, CYP2D6 activity 0.5 (n = 2), mean
[2] = both sexes, CYP2D6 activity 1 (n = 10), mean
[3] = both sexes, CYP2D6 activity 1.5 (n = 6), mean
[4] = both sexes, CYP2D6 activity 2 (n = 11), mean
[5] = both sexes, CYP2D6 activity 2.5 (n = 1), mean
[6] = both sexes, CYP2D6 activity 3 (n = 2), mean
[7] = CYP2C19 activity score 0 (n = 1), mean
[8] = CYP2C19 activity score 3 (n = 1), mean

half-life (both sexes, CYP2D6 activity 0 (n = 3), mean): 23.7 h | Tmax [1]: 2 h | half-life [1]: 24.2 h | Tmax [2]: 2.7 h | half-life [2]: 21.4 h | Tmax [3]: 3.7 h | half-life [3]: 19.8 h | Tmax [4]: 3.4 h | half-life [4]: 19.5 h | Tmax [5]: 6 h | half-life [5]: 14 h | Tmax [6]: 2 h | half-life [6]: 20.6 h | AUC(0-inf) (both sexes, OCT1 genotype *1 / *1 (n 14), mean ± standard deviation): 243 ± 88 ng·h/mL | AUC(0-inf) (both sexes, OCT1 genotype *1 / *2 (n 3), mean ± standard deviation): 273 ± 59 ng·h/mL | AUC(0-inf) (both sexes, OCT1 genotype *1 / *3 (n 4), mean ± standard deviation): 216 ± 87 ng·h/mL | AUC(0-inf) (both sexes, OCT1 genotype *1 / *4 (n 2), mean ± standard deviation): 187 ± 49 ng·h/mL | AUC(0-inf) (both sexes, OCT1 genotype *2 / *2 (n 3), mean ± standard deviation): 202 ± 92 ng·h/mL | AUC(0-inf) (both sexes, OCT1 genotype *2 / *3 (n 4), mean ± standard deviation): 189 ± 53 ng·h/mL | AUC(0-inf) (both sexes, OCT1 genotype *2 / *5 (n 1)): 298 ng·h/mL | AUC(0-inf) (both sexes, OCT1 genotype *3 / *3 (n 3), mean ± standard deviation): 172 ± 28 ng·h/mL | AUC(0-inf) (both sexes, OCT1 genotype *3 / *4 (n 1)): 215 ng·h/mL | Cmax (both sexes, read-out: average Cmax): 39 nM | Cmax (both sexes, read-out: average Cmax (average peak plasma concentration)): 10.7 ng/mL | peak concentration of unbound AT (25 mg AT, from peak plasma concentration with 95% plasma protein binding): 0.54 µg/L | Vz (0 active OCT1 alleles (n = 12)): 3,828 ± 800 L | Vz (1 active OCT1 allele (n = 9)): 3,610 ± 1,633 L | Vz (2 active OCT1 alleles (n = 14)): 3,401 ± 1,041 L | CL (CL/F = dose/AUCinf, 0 active OCT1 alleles (n = 12)): 2.3 ± 0.6 L/min | CL (CL/F = dose/AUCinf, 1 active OCT1 allele (n = 9)): 2.0 ± 0.8 L/min | CL (CL/F = dose/AUCinf, 2 active OCT1 alleles (n = 14)): 1.9 ± 0.6 L/min | CL (CL/F, CYP2C19 activity score 0 (n = 1), mean): 1.30 L/min | CL (CL/F, CYP2C19 activity score 1 (n = 5), mean): 1.94 L/min | CL (CL/F, CYP2C19 activity score 1.5 (n = 2), mean): 1.5 L/min | CL (CL/F, CYP2C19 activity score 2 (n = 16), mean): 2.1 L/min | CL (CL/F, CYP2C19 activity score 2.5 (n = 10), mean): 2.2 L/min | CL (CL/F, CYP2C19 activity score 3 (n = 1), mean): 1.54 L/min | CL (CL/F, CYP2D6 activity 0 (n = 3), mean): 1.45 L/min | CL (CL/F, CYP2D6 activity 0.5 (n = 2), mean): 2.09 L/min | CL (CL/F, CYP2D6 activity 1 (n = 10), mean): 1.81 L/min | CL (CL/F, CYP2D6 activity 1.5 (n = 6), mean): 2.03 L/min | CL (CL/F, CYP2D6 activity 2 (n = 11), mean): 2.25 L/min | CL (CL/F, CYP2D6 activity 2.5 (n = 1), mean): 2.64 L/min | CL (CL/F, CYP2D6 activity 3 (n = 2), mean): 2.92 L/min | Vz [7]: 3,004 L | Vz (CYP2C19 activity score 1 (n = 5), mean): 3,525 L | Vz (CYP2C19 activity score 1.5 (n = 2), mean): 2,559 L | Vz (CYP2C19 activity score 2 (n = 16), mean): 3,696 L | Vz (CYP2C19 activity score 2.5 (n = 10), mean): 3,740 L | Vz [8]: 3,762 L | Vz (CYP2D6 activity 0 (n = 3), mean): 2,982 L | Vz (CYP2D6 activity 0.5 (n = 2), mean): 4,189 L | Vz (CYP2D6 activity 1 (n = 10), mean): 3,269 L | Vz (CYP2D6 activity 1.5 (n = 6), mean): 3,446 L | Vz (CYP2D6 activity 2 (n = 11), mean): 3,768 L | Vz (CYP2D6 activity 2.5 (n = 1), mean): 3,192 L | Vz (CYP2D6 activity 3 (n = 2), mean): 5,361 L | AUC(0-t) [7]: 229 ng·h/mL | AUC(0-inf) [7]: 321 ng·h/mL | Cmax (CYP2C19 activity score 0 (n = 1), mean, read-out: Cmax): 11.5 ng/mL | AUC(0-t) [8]: 198 ng·h/mL | AUC(0-inf) [8]: 271 ng·h/mL | Cmax (CYP2C19 activity score 3 (n = 1), mean, read-out: Cmax): 13.9 ng/mL | Tmax [7]: 4 h | half-life [7]: 26.7 h | Tmax [8]: 2 h | half-life [8]: 28.3 h
SMILES: CN(C)CCC=C1c2ccccc2CCc2ccccc21 [Amitriptyline, amitriptyline]
